Data on four compounds can be found in patent publication US20040106545A1, “Compounds and methods for modulating cell adhesion” (priority 1996, published 2004).

“Also recorded” adds a separate entry of the source. Like-named read-outs stand apart in the source and are kept apart here. Positions of bridges follow the written chain, without caps; N, C: chain ends. Residues, ends and D or L forms follow the SMILES beside them.

Series [1] relates to HMVEC. The format is cell-based, human. The conditions noted are these: 3 h. The method, boiled down:
(§1)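 Peptide concentrations reached 100 μM. Both an MTT cytotoxicity read-out and ^3H-thymidine incorporation for proliferation were used.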

For series [2], the system named is HUVEC. The format is cell-based, human. Conditions: 3 h. A digest of the protocol: as §1
Series [3] relates to IAFp2. The format is cell-based, human. The conditions noted are these: 3 h. A digest of the protocol: as §1
Series [4] has as its system MDA-MB231. In kind it is cell-based, human. Conditions: 3 h. The method, boiled down: as §1
Series [5] relates to PC-3. The format is cell-based, human. Conditions: 3 h. The method, boiled down:
as §1

Series [6] has as its system WI-38. The format is cell-based, human. Conditions: 3 h. A digest of the protocol: as §1
Series [7] has as its system NRK cells. In words: Disruption of normal rat kidney (NRK) cell adhesion, E-cadherin immunofluorescence. The format is cell-based. Conditions: 1 mg/mL, 48 hours. The protocol:
Within another such assay, the effect of a modulating agent on normal rat kidney (NRK) cells may be evaluated. According to a representative procedure, NRK cells (ATCC #1571-CRL) may be plated at 10-20,000 cells per 35 mm tissue culture flasks containing DMEM with 10% FCS and sub-cultured periodically (Laird et al., J. Cell Biol. 131:1193-1203, 1995). Cells may be harvested and replated in 35 mm tissue culture flasks containing 1 mm coverslips and incubated until 50-65% confluent (24-36 hours). At this time, coverslips may be transferred to a 24-well plate, washed once with fresh DMEM and exposed to modulating agent at a concentration of, for example, 1 mg/mL for 24 hours. Fresh modulating agent may then be added, and the cells left for an additional 24 hours. Cells may be fixed with 100% methanol for 10 minutes and then washed three times with PBS. Coverslips may be blocked for 1 hour in 2% BSA/PBS and incubated for a further 1 hour in the presence of mouse anti-E-cadherin antibody (Transduction Labs, 1:250 dilution). Primary and secondary antibodies may be diluted in 2% BSA/PBS. Following incubation in the primary antibody, coverslips may be washed three times for 5 minutes each in PBS and incubated for 1 hour with donkey anti-mouse antibody conjugated to fluorescein (diluted 1:200). Following further washes in PBS (3×5 min) coverslips can be mounted and viewed by confocal microscopy.
NRK cells (ATCC #1571-CRL) were plated at 10-20,000 cells per 35 mm tissue culture flasks containing DMEM with 10% FCS and sub-cultured periodically (Laird et al., J. Cell Biol. 131:1193-1203, 1995). Cells were harvested and replated in 35 mm tissue culture flasks containing 1 mm coverslips and incubated until 50-65% confluent (24-36 hours). At this time, coverslips were transferred to a 24-well plate, washed once with fresh DMEM and exposed to cyclic peptide solutions (N—Ac-CHAVC-NH2 (SEQ ID NO:10) and N—Ac-CHGVC-NH2 (SEQ ID NO:11)) at a concentration of 1 mg/mL for 24 hours. Fresh peptide solutions were then added and the cells were left for an additional 24 hours. Cells were fixed with 100% methanol for 10 minutes and then washed three times with PBS. Coverslips were blocked for 1 hour in 2% BSA/PBS and incubated for a further 1 hour in the presence of mouse anti-E-cadherin antibody (Transduction Labs, Lexington, Ky.; 1:250 dilution). Primary and secondary antibodies were diluted in 2% BSA/PBS. Following incubation in the primary antibody, coverslips were washed three times for 5 minutes each in PBS and incubated for 1 hour with donkey anti-mouse antibody conjugated to fluorescein (Jackson Immuno Research, West Grove, Pa.; diluted 1:200). Following a further wash in PBS (3×5 min) coverslips were mounted and viewed by confocal microscopy.

Series [8] in a line: Cytotoxicity, MTT assay, WI-38. In kind it is cell-based. Conditions: human, read-out: WI-38 Cytotox (IC50). As for the experimental part:
N—Ac-CHAVC-NH2 (SEQ ID NO:10) and the control peptide N—Ac-CHGVC-NH2 (SEQ ID NO:11) were evaluated for possible cytotoxic effects on human microvascular endothelial (HMVEC; Clonetics), human umbilical vein endothelial (HUVEC; ATCC #CRL-1730), IAFp2 (human fibroblast cell line; Institute Armand-Frapier, Montreal, Quebec), WI-38 (human fibroblast cell line; ATCC #CCL-75), MDA-MB231 (human breast cancer cell line; ATCC #HTB-26), and PC-3 (human prostate cancer cell line; ATCC #CRL-1435) cells utilizing the MTT assay (Plumb et al., Cancer Res. 49:4435-4440, 1989). Neither of the peptides was cytotoxic at concentrations up to and including 100 μM. Similarly, neither of the peptides was capable of inhibiting the proliferation of the above cell lines at concentrations up to 100 μM, as judged by ^3H-thymidine incorporation assays.
On the technique in general: Formazan colour is commonly taken as a measure of viable cells.

Series [9] has as its system SKOV3 human ovarian cancer cells. In words: Induction of apoptosis in SKOV3 cancer cells, in situ cell death detection. The format is cell-based. Conditions: 0.5 or 0.25 mg/mL, 48 hours. The protocol:
Direct assays of induction of apoptosis may be performed using any standard technique. For example, cadherin-expressing cells (e.g., SKOV3 human ovarian cancer cells) may be plated onto poly-L-lysine coated glass slides and cultured with 500 μg/mL of modulating agent for 24-48 hours. Cells may then be fixed and assayed for cell death using any of a variety of well known methods. For example, an in situ cell death detection kit may be purchased from Boehringer Mannheim (Laval, Quebec) and used according to the manufacturer's instructions.
SKOV3 human ovarian cancer cells cultured in the presence of either N—Ac-CHAVC-NH2 (SEQ ID NO:10) or a control peptide (N—Ac-CHGVC-NH2; SEQ ID NO:11) in MEM with 10% FBS were plated onto poly-L-lysine coated glass slides. The cells were cultured for 24 or 48 hours and fixed with 4% paraformaldehyde for 30 minutes at room temperature. The slides were then washed three times with PBS and assessed for cell death. Cells were treated with 0.5 or 0.25 mg/mL of N—Ac-CHAVC-NH2 (SEQ ID NO:10) or the control N—Ac-CHGVC-NH2 (SEQ ID NO:11), as indicated. Cell death was measured as described by Gavrieli et al, J. Cell. Biol. 119:493-501, 1992 and using the In situ cell death detection kit (Boehringer Mannheim; Laval, Quebec).

Regarding `CC[C@H](C)[C@@H]1NC(=O)[C@H](CC(=O)O)NC(=O)[C@H](C(C)C)NC(=O)[C@H](C)NC(=O)[C@H](Cc2c[nH]cn2)NC(=O)[C@H](C)NC(=O)[C@@H](NC(C)=O)CSSC[C@@H](C(N)=O)NC1=O` (Ac-CAHAVDIC-NH2; disulfide 1-8), the IC50 in [1], in series [2], in [3], in series [4], in [5] and in series [6] was over 100 µM each time.
`CC(=O)N[C@H]1CSSC[C@@H](C(N)=O)NC(=O)[C@H](CC(=O)O)NC(=O)[C@H](C(C)C)NC(=O)[C@H](C)NC(=O)[C@H](Cc2c[nH]cn2)NC(=O)[C@H](C)NC1=O` [N—Ac—CAHAVDC—NH2, N-Ac-Cys-Ala-His-Ala-Val-Asp-Cys-NH2] (Ac-CAHAVDC-NH2; disulfide 1-7): the IC50 in series [1], in series [2], in series [3], in [4], in series [5] and in series [6] was over 100 µM throughout.
For the compound `CC(=O)N[C@H]1CSSC[C@@H](C(N)=O)NC(=O)[C@H](C(C)C)NC(=O)CNC(=O)[C@H](Cc2c[nH]cn2)NC1=O` [N—Ac—CHGVC—NH2, reference compound], in series [7], the “E-cadherin expression of NRK cells (immunofluorescence)” value is “expressed E-cadherin” and the “disruption of NRK cell adhesion” value is “had no affect on cell adhesion”. The IC50 – broadly, the midpoint of a concentration-inhibition curve – in [8] (WI-38 cells (human fibroblast cell line)) is over 100 µM. In addition, in [9], the “cell death of SKOV3 cells” value is listed as “did not die”.
In the case of `CC(=O)N[C@H]1CSSC[C@@H](C(N)=O)NC(=O)[C@H](C(C)C)NC(=O)[C@H](C)NC(=O)[C@H](Cc2c[nH]cn2)NC1=O` [N—Ac—CHAVC—NH2, N-Ac-Cys-His-Ala-Val-Cys-NH2], in series [7], the “E-cadherin expression of NRK cells (immunofluorescence)” value was “E-cadherin expression is greatly reduced; also recorded: expressed greatly reduced levels of E-cadherin” and the “disruption of NRK cell adhesion” value is given as “NRK cells retract from one another; also recorded: disrupted NRK cell adhesion”. Besides, the 50% inhibitory concentration (IC50) in [8] (WI-38 fibroblast cell line) was over 100 µM. For the same compound, the “cell death of SKOV3 cells” value in series [9] was “fluorescent green nuclei in FIGS. 35C and 35D indicate cell death; also recorded: can cause human ovarian cancer cell death”.
